The test system of this assay is polyamine transporter. Briefly: Inhibition of [3H]spermidine uptake in ZR-75-1 cells. It counts as cell-based, human. On the procedure:
The rate of putrescine and spermidine transport was determined in ZR-75-1 cells incubated in serum-free RPMI 1640 medium as described (Lessard, M., Zhao, C., Singh, S. M. and Poulin, R. 1995. J. Biol. Chem. 270: 1685-1694), using [^3H]putrescine (30 Ci/mol) and [^3H]spermidine (20 Ci/mol), respectively as substrates for a 20 minute-assay period. Spermine uptake was similarly determined, using 1 μM [^14C]spermine (32 Ci/mol) as substrate. Uptake activity was expressed per amount of DNA as fluorometrically determined using 3,4-diaminobenzoic acid (Simard, J., Dauvois, S., Haagensen, D. E., Lėvesque, C., Mėrand, Y. and Labrie, F. 1990. Endocrinology, 126: 3223-3231). For the determination of spermidine uptake activity in CHO-K1 cells, 80% confluent cell monolayers were rinsed twice with PBS and incubated for 20 minutes at 37° C. in 400 μl of buffer A (20 mM Tris-HCl, pH 7.4; 0.42 mM CaCl2; 0.41 mM MgSO4; 103 mM NaCl; 5.7 mM KCl; 1.1 mM D-glucose) containing 5 μM [^3H]spermidine (20 Ci/mol). Cell cultures were then washed twice with 1 ml PBS containing 5.7 mM sym-norspermidine. Cells were then lysed with 200-μl aliquot of 1 N NaOH and incubated for 30 minutes at 60° C. After neutralization with 200 μl of 1 N HCl, radioactivity was determined from a 250-μl of the cell lysate by scintillation counting. Uptake activity was expressed per amount of total cellular protein as determined by the method of Bradford (Bradford, M. M. 1976. Anal. Biochem. 72: 248-254). Non-specific binding of radioactive substrate was similarly determined in parallel for both cell lines after a 15 second-incubation with 400 μl of ice-cold uptake solution.
Kinetic analysis of polyamine transport was performed by determining uptake activity in the presence of a 3 μM [^3H]putrescine or 1 μM [^3H]spermidine plus increasing concentrations of nonradioactive substrate. K[…] Ki and Vmax values were then estimated by Lineweaver-Burke analysis. For competitive inhibitors, Ki values were also estimated by measuring uptake activity in the presence of logarithmically increasing concentrations of antagonist, and using the Cheng-Prusoff equation (Cheng, Y.-C. and Prusoff, W. H. 1973. Biochem. Pharmacol. 22: 3099-3108) by iterative curve fitting for a sigmoidal curve. For mixed competitive/noncompetitive inhibition, two methods were used to calculate kinetic constants. First, the equation [drawing 2] where v, s, and i are the transport velocity, substrate concentration and inhibitor concentration respectively, was used to calculate the inhibition constants for inhibitor/carrier complex formation (Ki) and carrier/inhibitor/substrate complex formation (Ki′) (Dixon, M. and Webb, E. C. 1976. Enzymes, 3rd Ed., Academic Press, San Diego, Calif.). […]
In order to evaluate the effectiveness of dimeric triamines as polyamine transport inhibitors, we synthesized N,N′-bis(3-aminopropyl),N,N′-bis(4-aminobutyl)cystamine or BABAC (structure 1, FIG. 25; FIG. 31), and its thiol form N-(3-aminopropyl),N-(4-aminobutyl)cysteamine or AAC (FIG. 31) according to Scheme 4 described above (FIG. 30), using spermidine as a precursor polyamine. The ability of BABAC and AAC to inhibit the intracellular uptake of radio-labeled putrescine and spermidine in the ZR-75-1 human breast cancer cell line was then determined according to standard published procedures (Lessard, et al. and Poulin, et al.) Briefly, ZR-75-1 cells were grown for four days in twenty-four well plates in RPMI 1640 medium supplemented with 10% fetal bovine serum.

SMILES strings stand for the structures. Like-named read-outs stand apart in the source and are kept apart here.

Regarding `NCCCNCCCC(NCCCN)C(=O)NCCSSCCNC(=O)C(CCCNCCCN)NCCCN` (centres unmarked) [DESC, 2,2′-dithiobis(N-ethyl-spermine-5-carboxamide)], the Ki (FIG. 32, 20 μM and 3 μM substrate, respectively, read-out: Apparent Ki, spermidine uptake) turned out to be 5.6 µM; the Ki (this work, read-out: Ki, spermidine transport) was 2.7 ± 1.1 µM.

Source of the values: patent US6949679B1, “Polyamine transport inhibitors” (Universite Laval, priority 1998, dated 2005).
